Laboratory results as given in article PMC10300026, “Discovery of an OTUD3 inhibitor for the treatment of non-small cell lung cancer” (Cell Death & Disease, 2023).

Biological target: T1, OTUD3 (Homo sapiens, UniProt Q5T2D3)
T1 construct: OTUD3 OTU (aa 52-209)
T1 sequence (Q5T2D3 52-209): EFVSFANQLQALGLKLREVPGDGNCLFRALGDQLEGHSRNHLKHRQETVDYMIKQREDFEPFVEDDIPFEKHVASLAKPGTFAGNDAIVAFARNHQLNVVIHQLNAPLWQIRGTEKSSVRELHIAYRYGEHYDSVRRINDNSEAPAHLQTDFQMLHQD
Assay: SPR (Biacore T200, CM5 chip); supported by in vitro K48/K63 di-ubiquitin cleavage inhibition
Type: binding

O=C(Nc1cccc(-c2nc3ccccc3[nH]2)c1)c1ccc(S(=O)(=O)N2CCc3ccccc3C2)cc1 [compound 16, 4-[dioxo(1,2,3,4-tetrahydroisoquinolin-2-yl)-λ6-sulfanyl]-N-[3-(1H-benzo[d]imidazol-2-yl)phenyl]benzamide]
Kd: 0.32 µM
